Test results as given in patent publication US11471537B2, “Oligomer extended insulin-Fc conjugates” (Novo Nordisk A/S, priority 2017, dated 2022).

Tests used:
Sprague-Dawley rats = experiment: PD studies: blood glucose after subcutaneous dosing; type: in vivo; conditions: sc
Procedure: The pharmacodynamic effect of the Insulin Fc conjugates of the examples were investigated in normal male Sprague-Dawley rats weighing approx. 350 g at study start.
Animals had free access to food and water during the experiment period. They were dosed subcutaneously in the neck region with a dose of 30 nmol/kg (unless otherwise stated in the figures below). Blood samples for blood glucose and plasma insulin analysis were collected from the tongue veins up to 10 days post dosing. Blood glucose was measured using Biosen S Line (EKF).

insulin receptor A = insulin receptor A (Homo sapiens, UniProt P06213); experiment: Insulin receptor affinity; type: binding; conditions: relative to affinity of human insulin for insulin receptor A (100%)
isolated rat adipocytes = experiment: Insulin-stimulated lipogenesis; type: cell-based; conditions: 1% HSA; relative to the activity of human insulin (100%)
Procedure: Insulin-stimulated lipogenesis was measured in isolated rat adipocytes in presence of 1% HSA as described in Moody A J, Stan M A, Stan M, Gliemann J. A Simple Free Fat Cell Bioassay for Insulin. Hormone And Metabolic Research. 1974; 6(1):12-6, see results in Table 6.

[1] = dose 30 nmol/kg, time 0.041667 days
[2] = dose 30 nmol/kg, time 0.125 days
[3] = dose 30 nmol/kg, time 0.291667 days

Sequence of insulin receptor A (P06213 28-1370 isoform P06213-2 limits assumed): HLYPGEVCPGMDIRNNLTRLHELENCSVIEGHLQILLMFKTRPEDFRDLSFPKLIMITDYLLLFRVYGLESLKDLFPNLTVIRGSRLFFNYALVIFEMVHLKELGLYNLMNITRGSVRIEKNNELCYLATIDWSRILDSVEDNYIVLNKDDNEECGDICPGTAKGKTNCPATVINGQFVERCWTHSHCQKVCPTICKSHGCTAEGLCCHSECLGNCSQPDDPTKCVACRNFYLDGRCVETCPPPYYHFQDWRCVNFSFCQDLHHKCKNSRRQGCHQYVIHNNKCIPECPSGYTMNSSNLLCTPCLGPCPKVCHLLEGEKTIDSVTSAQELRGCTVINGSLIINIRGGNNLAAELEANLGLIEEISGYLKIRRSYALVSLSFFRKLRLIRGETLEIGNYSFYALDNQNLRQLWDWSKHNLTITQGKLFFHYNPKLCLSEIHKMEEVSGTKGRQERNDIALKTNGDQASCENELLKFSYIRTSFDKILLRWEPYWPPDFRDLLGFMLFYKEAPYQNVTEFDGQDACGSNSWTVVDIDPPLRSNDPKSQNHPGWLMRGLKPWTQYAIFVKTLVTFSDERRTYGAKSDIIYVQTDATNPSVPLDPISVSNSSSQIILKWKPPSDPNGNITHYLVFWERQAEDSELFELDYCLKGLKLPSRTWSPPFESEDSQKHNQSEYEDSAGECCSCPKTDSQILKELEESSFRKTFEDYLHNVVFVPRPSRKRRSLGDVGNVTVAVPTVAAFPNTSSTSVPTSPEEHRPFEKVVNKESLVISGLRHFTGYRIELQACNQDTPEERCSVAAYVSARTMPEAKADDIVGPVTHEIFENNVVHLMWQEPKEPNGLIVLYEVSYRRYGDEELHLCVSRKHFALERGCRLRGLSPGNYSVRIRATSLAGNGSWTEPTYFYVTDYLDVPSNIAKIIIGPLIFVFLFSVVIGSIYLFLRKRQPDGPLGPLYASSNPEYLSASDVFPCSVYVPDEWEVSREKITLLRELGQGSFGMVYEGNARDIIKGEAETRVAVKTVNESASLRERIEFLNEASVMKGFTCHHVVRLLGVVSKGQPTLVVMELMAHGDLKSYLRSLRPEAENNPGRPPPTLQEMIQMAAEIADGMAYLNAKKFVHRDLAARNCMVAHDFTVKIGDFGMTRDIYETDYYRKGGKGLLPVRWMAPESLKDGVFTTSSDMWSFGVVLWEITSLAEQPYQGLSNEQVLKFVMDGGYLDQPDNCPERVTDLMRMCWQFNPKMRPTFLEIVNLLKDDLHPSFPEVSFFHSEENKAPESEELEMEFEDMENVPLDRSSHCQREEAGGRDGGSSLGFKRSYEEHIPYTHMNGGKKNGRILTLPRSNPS
Sequence of insulin receptor A (P06213 763-1382 partner limits assumed): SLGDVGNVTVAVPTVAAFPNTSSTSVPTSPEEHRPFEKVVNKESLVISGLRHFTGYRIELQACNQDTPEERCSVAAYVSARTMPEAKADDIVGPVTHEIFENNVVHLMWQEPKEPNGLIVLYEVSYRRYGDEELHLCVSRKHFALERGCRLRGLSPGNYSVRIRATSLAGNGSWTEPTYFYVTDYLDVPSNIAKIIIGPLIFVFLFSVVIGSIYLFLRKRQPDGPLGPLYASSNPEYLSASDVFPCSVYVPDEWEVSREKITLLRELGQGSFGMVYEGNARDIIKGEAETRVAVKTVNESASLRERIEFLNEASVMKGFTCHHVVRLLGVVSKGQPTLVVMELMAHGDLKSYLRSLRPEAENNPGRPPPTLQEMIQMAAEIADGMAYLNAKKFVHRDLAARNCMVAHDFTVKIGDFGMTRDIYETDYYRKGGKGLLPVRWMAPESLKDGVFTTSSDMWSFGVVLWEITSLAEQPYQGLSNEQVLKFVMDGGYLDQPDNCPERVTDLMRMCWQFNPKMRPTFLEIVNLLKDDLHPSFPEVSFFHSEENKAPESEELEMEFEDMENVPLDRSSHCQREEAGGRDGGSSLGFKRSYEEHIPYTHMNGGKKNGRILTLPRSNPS

Substance	Average blood glucose (Sprague-Dawley rats; dose 30 nmol/kg, time 0 days) [mM]	Average blood glucose (Sprague-Dawley rats; [1]) [mM]	Average blood glucose (Sprague-Dawley rats; [2]) [mM]	Average blood glucose (Sprague-Dawley rats; [3]) [mM]	Average blood glucose (Sprague-Dawley rats; dose 30 nmol/kg, time 1 day) [mM]	Average blood glucose (Sprague-Dawley rats; dose 30 nmol/kg, time 2 days) [mM]	Average blood glucose (Sprague-Dawley rats; dose 30 nmol/kg, time 3 days) [mM]	Average blood glucose (Sprague-Dawley rats; dose 30 nmol/kg, time 4 days) [mM]	Average blood glucose (Sprague-Dawley rats; dose 30 nmol/kg, time 5 days) [mM]	Average blood glucose (Sprague-Dawley rats; dose 30 nmol/kg, time 6 days) [mM]	Average blood glucose (Sprague-Dawley rats; dose 30 nmol/kg, time 7 days) [mM]	Average blood glucose (Sprague-Dawley rats; dose 30 nmol/kg, time 8 days) [mM]	Insulin receptor affinity [IC50 relative to HI (%)] Mean Value (insulin receptor A) [%]	Lipogenesis in rat adipocytes [Potency (%)] Mean Value (isolated rat adipocytes) [%]	further results
(A14A, A21G, A22(GQAP)18, A94G, A95Q, A96A, A97K^, A98P, B29R, desB30 human insulin)/(227A, 234A, 235K, 297E, 315Q, 384Q, des447 hIgG4-Fc(228-447))4-[bis[2-[(2-acetyl)amino]ethyl]amino]-4-oxo-butanoyl Conjugate [Example 5.25]	5.724	6.104	4.9	4.032	3.28	3.864	6.224	5.976	6.036	6.496	6.14	6.452	4.49	2.08	Average blood glucose (Sprague-Dawley rats; dose 30 nmol/kg, time 9 days): 6.528 mM; Average blood glucose (Sprague-Dawley rats; dose 30 nmol/kg, time 10 days): 6.144 mM
(A14E, A21G, A22(GQAP)18, A94G, A95Q, A96A, A97K^, A98P, B16E, B25H, B29R, desB30 human insulin)/(227A, 234A, 235K, 297E, 315Q, 384Q, des447 hIgG4-Fc(228-447))4-[bis[2-[(2-acetyl)amino]ethyl]amino]-4-oxo-butanoyl Conjugate [Example 5.31]													0.47	0.60	
(A14E, A21G, A22(GQAP)24, A118G, A119Q, A120A, A121K^, A122P, B25H, B29R, desB30 human insulin)/(227A, 234A, 235K, 297E, 315Q, 3840, des447 hIgG4-Fc(228-447))3,5-bis[(2-acetyl)amino]benzoyl Conjugate [Example 5.22]													3.56	4.64	
(A14E, A21G, A22(GQAP)24, A118G, A119Q, A120A, A121K^, A122P, B29R, desB30 human insulin)/(227A, 234A, 235K, 297E, 315Q, 384Q, des447 hIgG4-Fc(228-447))3,5-bis[(2-acetyl)amino]benzoyl Conjugate [Example 5.29]													3.06	2.64	
(A14E, A21G, A22(GQEP)19, 98K^, A99P, B25H, B29R, desB30 human insulin)/(226A, 227G, 228P, 234A, 235K, des447 hIgG4-Fc(228-447))3,5-bis[(2-acetyl)amino]benzoyl Conjugate [Example 5.33]	5.496	5.284	4.716	3.744	3.744	2.232	1.844	2.432	3.98	6.132	5.712	5.38	3.85	5.44	Average blood glucose (Sprague-Dawley rats; dose 30 nmol/kg, time 9 days): 5.316 mM; Average blood glucose (Sprague-Dawley rats; dose 30 nmol/kg, time 10 days): 5.44 mM
(A14E, A21G, A22(GQEP)19, A98K^, A99P, B25H, B29R, desB30 human insulin)/(227A, 234A, 235K hIgG4-Fc(228-447))4-[bis[2-[(2-acetyl)amino]ethyl]amino]-4-oxo-butanoyl Conjugate [Example 5.1]	6.68	5.888	4.988	3.752	2.524	2.036	2.964	3.244		6.508	6.18	5.996	5.07	6.69	
A14E, A21G, A22(GQAPGQAPGQAPGQEP)6-GQAP, A122K^, A123P, B25H, B29R, desB30 human insulin/(227A, 234A, 235K, 297E, 315Q, 384Q, des447 hIgG4-Fc(228-447))4-[bis[2-[(2-acetyl)amino]ethyl]amino]-4-oxo-butanoyl Conjugate [Example 5.20]													5.49	5.41	
A14E, A21G, A22(GQAPGQAPGQEP)6-GQAP, A98K^, A99P, B3Q, B25H, B29R, desB30 human insulin/(227A, 234A, 235K hIgG4-Fc(228-447))4-[bis[2-[(2-acetyl)amino]ethyl]amino]-4-oxo-butanoyl Conjugate [Example 5.5]	5.266	5.276	4.894	4.358	3.106	2.33	2.786	4.764	5.842	6.016	5.76	5.794	3.34	2.21	Average blood glucose (Sprague-Dawley rats; dose 30 nmol/kg, time 0.208333 days): 4.422 mM
A14E, A21G, A22(GQAPGQAPGQEP)6-GQAP, A98K^, A99P, B3Q, B25H, B29R, desB30 human insulin/(227A, 234A, 235K, 297E, 315Q, 384Q, des447 hIgG4-Fc(228-447))4-[bis[2-[(2-acetyl)amino]ethyl]carbamoylamino]butanoyl Conjugate [Example 5.24]	5.604	5.98	5.172	4.164	2.924	3.128	3.352	6.272	5.788	5.824	6.092	6.016	4.60	3.83	Average blood glucose (Sprague-Dawley rats; dose 30 nmol/kg, time 9 days): 5.872 mM; Average blood glucose (Sprague-Dawley rats; dose 30 nmol/kg, time 10 days): 6.072 mM
A14E, A21G, A22(GQEP)3, A34G, A350, A36E, A37K^, A38P, B25H, B29R, desB30 human insulin/(227A, 234A, 235K hIgG4-Fc(228-447))4-[bis[2-[(2-acetyl)amino]ethyl]amino]-4-oxo-butanoyl Conjugate [Example 5.10]													2.47		
A14E, A21G, A22(GQEP)6, A46K^, A47P, B25H, B29R, desB30 human insulin/(227A, 234A, 235K, 297E, 315Q, 384Q, des447 hIgG4-Fc(228-447))4-[bis[2-[(2-acetyl)amino]ethyl]amino]-4-oxo-butanoyl Conjugate [Example 5.32]													2.16	3.72	
A14E, A21G, A22(GQEP)19, A98K^, A99P, B3Q, B25H, B29R, desB30 human insulin/(227A, 234A, 235K hIgG4-Fc(228-447))4-[bis[2-[(2-acetyl)amino]ethyl]amino]-4-oxo-butanoyl Conjugate [Example 5.6]	6.46	6.024	5.092	3.90	2.808	2.464	2.996	2.996		5.98	5.82	6.012	5.07		
insulin degludec [reference compound]															time over which blood glucose was lowered (Sprague-Dawley rats; 3-fold higher dose (90 nmol/kg)): less than half a day; Average blood glucose (Sprague-Dawley rats; dose 90 nmol/kg, time 0 days): 5.382 mM; Average blood glucose (Sprague-Dawley rats; dose 90 nmol/kg, time 0.020833 days): 4.104 mM; Average blood glucose (Sprague-Dawley rats; dose 90 nmol/kg, time 0.041667 days): 3.182 mM; Average blood glucose (Sprague-Dawley rats; dose 90 nmol/kg, time 0.083333 days): 2.718 mM; Average blood glucose (Sprague-Dawley rats; dose 90 nmol/kg, time 0.166667 days): 2.336 mM; Average blood glucose (Sprague-Dawley rats; dose 90 nmol/kg, time 0.25 days): 3.424 mM; Average blood glucose (Sprague-Dawley rats; dose 90 nmol/kg, time 0.3336 days): 4.292 mM; Average blood glucose (Sprague-Dawley rats; dose 90 nmol/kg, time 0.5 days): 5.302 mM; Average blood glucose (Sprague-Dawley rats; dose 90 nmol/kg, time 1 day): 5.758 mM
